Reference: patent publication US20140343000A1 (priority 2011, published 2014)

Tested on: recombinant NL4-3 virus (Renilla luciferase in nef, Gag P373S; NLRluc) in MT-2 cells
Assay: whole plant or invertebrate
Format: cell-based, HIV
Conditions: Renilla, NL43, luciferase activity in cells infected for 4-5 days with NLRluc recombinants, serial dilutions of inhibitor; class symbols (key in Table 1); read-out: EC50
Procedure, shortened: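 MT-2 cells infected 4–5 days with NL4-3 carrying Renilla luciferase in nef and Gag P373S, with serial dilutions of inhibitor present. Antiviral activity quantified by luciferase activity, using Dual Luciferase reagents premixed with lysis buffer and read immediately.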

| SMILES | EC50 [nM] |
| --- | --- |
| C=C(C)[C@@H]1CC[C@]2(NCCNc3nccc(SC)n3)CC[C@]3(C)[C@H](CC[C@@H]4[C@@]5(C)CC=C(c6ccc(C(=O)O)cc6)C(C)(C)[C@@H]5CC[C@]43C)[C@@H]12 [Example 197, 4-((1R,3aS,5aR,5bR,7aR,11aS,11bR,13aR,13bR)-5a,5b,8,8,11a-pentamethyl-3a-(2-(4-(methylthio)pyrimidin-2-ylamino)ethylamino)-1-(prop-1-en-2-yl)-2,3,3a,4,5,5a,5b,6,7,7a,8,11,11a,11b,12,13,13a,13b-octadecahydro-1H-cyclopenta[a]chrysen-9-yl)benzoic acid] | < 100 |
| C=C(C)[C@@H]1CC[C@]2(NCCN3CCOCC3)CC[C@]3(C)[C@H](CC[C@@H]4[C@@]5(C)CC=C(c6ccc(C(=O)O)cc6)C(C)(C)[C@@H]5CC[C@]43C)[C@@H]12 [Example 159, 4-((1R,3aS,5aR,5bR,7aR,11aS,11bR,13aR,13bR)-5a,5b,8,8,11a-pentamethyl-3a-(2-morpholinoethylamino)-1-(prop-1-en-2-yl)-2,3,3a,4,5,5a,5b,6,7,7a,8,11,11a,11b,12,13,13a,13b-octadecahydro-1H-cyclopenta[a]chrysen-9-yl)benzoic acid] | < 100 |
| C=C(C)[C@@H]1CC[C@]2(NCCN3CCN(C(=O)C(C)c4ccccc4)CC3)CC[C@]3(C)[C@H](CC[C@@H]4[C@@]5(C)CC=C(c6ccc(C(=O)O)cc6)C(C)(C)[C@@H]5CC[C@]43C)[C@@H]12 (stereo partly drawn) [Example B58, 4-((1R,3aS,5aR,5bR,7aR,11aS,11bR,13aR,13bR)-5a,5b,8,8,11a-pentamethyl-3a-((2-(4-(2-phenylpropanoyl)piperazin-1-yl)ethyl)amino)-1-(prop-1-en-2-yl)-2,3,3a,4,5,5a,5b,6,7,7a,8,11,11a,11b,12,13,13a,13b-octadecahydro-1H-cyclopenta[a]chrysen-9-yl)benzoic acid] | < 100 |
| C=C(C)[C@@H]1CC[C@]2(NC(=O)CN3C(=O)OC[C@@H]3c3ccccc3)CC[C@]3(C)[C@H](CC[C@@H]4[C@@]5(C)CC=C(c6ccc(C(=O)O)cc6)C(C)(C)[C@@H]5CC[C@]43C)[C@@H]12 [Example 107, 4-((1R,3aS,5aR,5bR,7aR,11aS,11bR,13aR,13bR)-5a,5b,8,8,11a-pentamethyl-3a-(2-((S)-2-oxo-4-phenyloxazolidin-3-yl)acetamido)-1-(prop-1-en-2-yl)-2,3,3a,4,5,5a,5b,6,7,7a,8,11,11a,11b,12,13,13a,13b-octadecahydro-1H-cyclopenta[a]chrysen-9-yl)benzoic acid] | < 100 |
| C=C(C)[C@@H]1CC[C@]2(NC(=O)NCCN(C)CCO)CC[C@]3(C)[C@H](CC[C@@H]4[C@@]5(C)CC=C(c6ccc(C(=O)O)cc6)C(C)(C)[C@@H]5CC[C@]43C)[C@@H]12 [Example 23, 4-((1R,3aS,5aR,5bR,7aR,11aS,11bR,13aR,13bR)-3a-(3-(2-((2-hydroxyethyl)(methyl)amino)ethyl)ureido)-5a,5b,8,8,11a-pentamethyl-1-(prop-1-en-2-yl)-2,3,3a,4,5,5a,5b,6,7,7a,8,11,11a,11b,12,13,13a,13b-octadecahydro-1H-cyclopenta[a]chrysen-9-yl)benzoic acid] | < 100 |
| C=C(C)[C@@H]1CC[C@]2(NC(=O)N3CCCNCC3)CC[C@]3(C)[C@H](CC[C@@H]4[C@@]5(C)CC=C(c6ccc(C(=O)O)cc6)C(C)(C)[C@@H]5CC[C@]43C)[C@@H]12 [Example 55, 4-((1R,3aS,5aR,5bR,7aR,11aS,11bR,13aR,13bR)-3a-(1,4-diazepane-1-carboxamido)-5a,5b,8,8,11a-pentamethyl-1-(prop-1-en-2-yl)-2,3,3a,4,5,5a,5b,6,7,7a,8,11,11a,11b,12,13,13a,13b-octadecahydro-1H-cyclopenta[a]chrysen-9-yl)benzoic acid] | < 100 |
| C=C(C)[C@@H]1CC[C@]2(NCCN3CCN(C(=O)CCC)CC3)CC[C@]3(C)[C@H](CC[C@@H]4[C@@]5(C)CC=C(c6ccc(C(=O)O)cc6)C(C)(C)[C@@H]5CC[C@]43C)[C@@H]12 [Example B61, 4-((1R,3aS,5aR,5bR,7aR,11aS,11bR,13aR,13bR)-3a-((2-(4-butyrylpiperazin-1-yl)ethyl)amino)-5a,5b,8,8,11a-pentamethyl-1-(prop-1-en-2-yl)-2,3,3a,4,5,5a,5b,6,7,7a,8,11,11a,11b,12,13,13a,13b-octadecahydro-1H-cyclopenta[a]chrysen-9-yl)benzoic acid] | < 100 |
| C=C(C)[C@@H]1CC[C@]2(NCCN3CCN(C(=O)C4CCCC4)CC3)CC[C@]3(C)[C@H](CC[C@@H]4[C@@]5(C)CC=C(c6ccc(C(=O)O)cc6)C(C)(C)[C@@H]5CC[C@]43C)[C@@H]12 [Example B55, 4-((1R,3aS,5aR,5bR,7aR,11aS,11bR,13aR,13bR)-3a-((2-(4-(cyclopentanecarbonyl)piperazin-1-yl)ethyl)amino)-5a,5b,8,8,11a-pentamethyl-1-(prop-1-en-2-yl)-2,3,3a,4,5,5a,5b,6,7,7a,8,11,11a,11b,12,13,13a,13b-octadecahydro-1H-cyclopenta[a]chrysen-9-yl)benzoic acid] | < 100 |
| C=C(C)[C@@H]1CC[C@]2(NCCN3CCSCC3)CC[C@]3(C)[C@H](CC[C@@H]4[C@@]5(C)CC=C(c6ccc(C(=O)O)cc6)C(C)(C)[C@@H]5CC[C@]43C)[C@@H]12 [Example 168, 4-((1R,3aS,5aR,5bR,7aR,11aS,11bR,13aR,13bR)-5a,5b,8,8,11a-pentamethyl-1-(prop-1-en-2-yl)-3a-(2-thiomorpholinoethylamino)-2,3,3a,4,5,5a,5b,6,7,7a,8,11,11a,11b,12,13,13a,13b-octadecahydro-1H-cyclopenta[a]chrysen-9-yl)benzoic acid] | < 100 |
| C=C(C)[C@@H]1CC[C@]2(NC(=O)CN3CCOC3=O)CC[C@]3(C)[C@H](CC[C@@H]4[C@@]5(C)CC=C(c6ccc(C(=O)O)cc6)C(C)(C)[C@@H]5CC[C@]43C)[C@@H]12 [Example 105, 4-((1R,3aS,5aR,5bR,7aR,11aS,11bR,13aR,13bR)-5a,5b,8,8,11a-pentamethyl-3a-(2-(2-oxooxazolidin-3-yl)acetamido)-1-(prop-1-en-2-yl)-2,3,3a,4,5,5a,5b,6,7,7a,8,11,11a,11b,12,13,13a,13b-octadecahydro-1H-cyclopenta[a]chrysen-9-yl)benzoic acid] | < 100 |
| C=C(C)[C@@H]1CC[C@]2(NC(=O)C(NC3CCS(=O)(=O)C3)C(C)C)CC[C@]3(C)[C@H](CC[C@@H]4[C@@]5(C)CC=C(c6ccc(C(=O)O)cc6)C(C)(C)[C@@H]5CC[C@]43C)[C@@H]12 (stereo partly drawn) [Example 112, benzoic acid, 4-[(1R,3aS,5aR,5bR,7aR,11aS,11bR,13aR,13bR)-2,3,3a,4,5,5a,5b,6,7,7a,8,11,11a,11b,12,13,13a,13b-octadecahydro-5a,5b,8,8,11a-pentamethyl-1-(1-methylethenyl)-3a-[[3-methyl-1-oxo-2-[(tetrahydro-1,1-dioxido-3-thienyl)amino]butyl]amino]-1H-cyclopenta[a]chrysen-9-yl]] | < 100 |
| CC(C)[C@@H]1CC[C@]2(N(CCN(C)C)CCN(C)C)CC[C@]3(C)[C@H](CC[C@@H]4[C@@]5(C)CC[C@H](c6ccc(C(=O)O)cc6)C(C)(C)[C@@H]5CC[C@]43C)[C@@H]12 [Example B6, 4-((1S,3aS,5aR,5bR,7aS,9S,11aS,11bR,13aR,13bR)-3a-(bis(2-(dimethylamino)ethyl)amino)-1-isopropyl-5a,5b,8,8,11a-pentamethylicosahydro-1H-cyclopenta[a]chrysen-9-yl)benzoic acid] | < 100 |

Same assay, conditions: Renilla, NL43, luciferase activity in cells infected for 4-5 days with NLRluc recombinants, serial dilutions of inhibitor; numeric values; read-out: EC50

| SMILES | EC50 [nM] |
| --- | --- |
| C=C(C)[C@@H]1CC[C@]2(NCCN3CCN(S(=O)(=O)c4cccc(OC)c4)CC3)CC[C@]3(C)[C@H](CC[C@@H]4[C@@]5(C)CC=C(c6ccc(C(=O)O)cc6)C(C)(C)[C@@H]5CC[C@]43C)[C@@H]12 [Example B45, 4-((1R,3aS,5aR,5bR,7aR,11aS,11bR,13aR,13bR)-3a-((2-(4-((3-methoxyphenyl)sulfonyl)piperazin-1-yl)ethyl)amino)-5a,5b,8,8,11a-pentamethyl-1-(prop-1-en-2-yl)-2,3,3a,4,5,5a,5b,6,7,7a,8,11,11a,11b,12,13,13a,13b-octadecahydro-1H-cyclopenta[a]chrysen-9-yl)benzoic acid] | 4 |
| C=C(C)[C@@H]1CC[C@]2(NCCNCCC(=O)O)CC[C@]3(C)[C@H](CC[C@@H]4[C@@]5(C)CC=C(c6ccc(C(=O)O)cc6)C(C)(C)[C@@H]5CC[C@]43C)[C@@H]12 [Example 140, 4-((1R,3aS,5aR,5bR,7aR,11aS,11bR,13aR,13bR)-3a-(2-(2-carboxyethylamino)ethylamino)-5a,5b,8,8,11a-pentamethyl-1-(prop-1-en-2-yl)-2,3,3a,4,5,5a,5b,6,7,7a,8,11,11a,11b,12,13,13a,13b-octadecahydro-1H-cyclopenta[a]chrysen-9-yl)benzoic acid] | 9 |
| C=C(C)[C@@H]1CC[C@]2(NCCNS(=O)(=O)CC)CC[C@]3(C)[C@H](CC[C@@H]4[C@@]5(C)CC=C(c6ccc(C(=O)O)cc6)C(C)(C)[C@@H]5CC[C@]43C)[C@@H]12 [Example B33, 4-((1R,3aS,5aR,5bR,7aR,11aS,11bR,13aR,13bR)-3a-((2-(ethylsulfonamido)ethyl)amino)-5a,5b,8,8,11a-pentamethyl-1-(prop-1-en-2-yl)-2,3,3a,4,5,5a,5b,6,7,7a,8,11,11a,11b,12,13,13a,13b-octadecahydro-1H-cyclopenta[a]chrysen-9-yl)benzoic acid] | 5 |
